Test: Blood levels of T3 after intraperitoneal administration in mice
Type: in vivo
Description: This T3-nanoparticle is administered intraperitoneally in mice.

amount of T3 remaining in the blood over time (intraperitoneal, FIG. 8A): A lesser amount of T3 remains over time
SMILES: N[C@@H](Cc1cc(I)c(Oc2ccc(O)c(I)c2)c(I)c1)C(=O)O [free T3, triiodothyronine]
T3 blood levels (intraperitoneal injection, FIG. 8B): increased T3 blood levels which were followed by a subsequent leveling off
